Laboratory results published in paper PMC4042160, “In silico, in vitro and cellular analysis with a kinome-wide inhibitor panel correlates cellular LRRK2 dephosphorylation to inhibitor activity on LRRK2” (Frontiers in Molecular Neuroscience, 2014).
Structures can show the parent of a compound that is named as a salt.

Assays:
LRRK2 phospho-Ser935 = molecular target: T1, LRRK2 phospho-Ser935 (Homo sapiens, UniProt Q5S007); assay: Cellular LRRK2 phosphoserine 935 dephosphorylation spotblot assay in SH-SY5Y cells stably expressing 3xFlag-LRRK2; format: cell-based; settings: for Phosphorylation level relative to solvent (%) (cellular pS935 assay): @ 5 μM for 2 h, SH-SY5Y stably expressing LRRK2, pS935/total LRRK2
T1 construct: expressed in transfected cells
T1 sequence (Q5S007 whole entry): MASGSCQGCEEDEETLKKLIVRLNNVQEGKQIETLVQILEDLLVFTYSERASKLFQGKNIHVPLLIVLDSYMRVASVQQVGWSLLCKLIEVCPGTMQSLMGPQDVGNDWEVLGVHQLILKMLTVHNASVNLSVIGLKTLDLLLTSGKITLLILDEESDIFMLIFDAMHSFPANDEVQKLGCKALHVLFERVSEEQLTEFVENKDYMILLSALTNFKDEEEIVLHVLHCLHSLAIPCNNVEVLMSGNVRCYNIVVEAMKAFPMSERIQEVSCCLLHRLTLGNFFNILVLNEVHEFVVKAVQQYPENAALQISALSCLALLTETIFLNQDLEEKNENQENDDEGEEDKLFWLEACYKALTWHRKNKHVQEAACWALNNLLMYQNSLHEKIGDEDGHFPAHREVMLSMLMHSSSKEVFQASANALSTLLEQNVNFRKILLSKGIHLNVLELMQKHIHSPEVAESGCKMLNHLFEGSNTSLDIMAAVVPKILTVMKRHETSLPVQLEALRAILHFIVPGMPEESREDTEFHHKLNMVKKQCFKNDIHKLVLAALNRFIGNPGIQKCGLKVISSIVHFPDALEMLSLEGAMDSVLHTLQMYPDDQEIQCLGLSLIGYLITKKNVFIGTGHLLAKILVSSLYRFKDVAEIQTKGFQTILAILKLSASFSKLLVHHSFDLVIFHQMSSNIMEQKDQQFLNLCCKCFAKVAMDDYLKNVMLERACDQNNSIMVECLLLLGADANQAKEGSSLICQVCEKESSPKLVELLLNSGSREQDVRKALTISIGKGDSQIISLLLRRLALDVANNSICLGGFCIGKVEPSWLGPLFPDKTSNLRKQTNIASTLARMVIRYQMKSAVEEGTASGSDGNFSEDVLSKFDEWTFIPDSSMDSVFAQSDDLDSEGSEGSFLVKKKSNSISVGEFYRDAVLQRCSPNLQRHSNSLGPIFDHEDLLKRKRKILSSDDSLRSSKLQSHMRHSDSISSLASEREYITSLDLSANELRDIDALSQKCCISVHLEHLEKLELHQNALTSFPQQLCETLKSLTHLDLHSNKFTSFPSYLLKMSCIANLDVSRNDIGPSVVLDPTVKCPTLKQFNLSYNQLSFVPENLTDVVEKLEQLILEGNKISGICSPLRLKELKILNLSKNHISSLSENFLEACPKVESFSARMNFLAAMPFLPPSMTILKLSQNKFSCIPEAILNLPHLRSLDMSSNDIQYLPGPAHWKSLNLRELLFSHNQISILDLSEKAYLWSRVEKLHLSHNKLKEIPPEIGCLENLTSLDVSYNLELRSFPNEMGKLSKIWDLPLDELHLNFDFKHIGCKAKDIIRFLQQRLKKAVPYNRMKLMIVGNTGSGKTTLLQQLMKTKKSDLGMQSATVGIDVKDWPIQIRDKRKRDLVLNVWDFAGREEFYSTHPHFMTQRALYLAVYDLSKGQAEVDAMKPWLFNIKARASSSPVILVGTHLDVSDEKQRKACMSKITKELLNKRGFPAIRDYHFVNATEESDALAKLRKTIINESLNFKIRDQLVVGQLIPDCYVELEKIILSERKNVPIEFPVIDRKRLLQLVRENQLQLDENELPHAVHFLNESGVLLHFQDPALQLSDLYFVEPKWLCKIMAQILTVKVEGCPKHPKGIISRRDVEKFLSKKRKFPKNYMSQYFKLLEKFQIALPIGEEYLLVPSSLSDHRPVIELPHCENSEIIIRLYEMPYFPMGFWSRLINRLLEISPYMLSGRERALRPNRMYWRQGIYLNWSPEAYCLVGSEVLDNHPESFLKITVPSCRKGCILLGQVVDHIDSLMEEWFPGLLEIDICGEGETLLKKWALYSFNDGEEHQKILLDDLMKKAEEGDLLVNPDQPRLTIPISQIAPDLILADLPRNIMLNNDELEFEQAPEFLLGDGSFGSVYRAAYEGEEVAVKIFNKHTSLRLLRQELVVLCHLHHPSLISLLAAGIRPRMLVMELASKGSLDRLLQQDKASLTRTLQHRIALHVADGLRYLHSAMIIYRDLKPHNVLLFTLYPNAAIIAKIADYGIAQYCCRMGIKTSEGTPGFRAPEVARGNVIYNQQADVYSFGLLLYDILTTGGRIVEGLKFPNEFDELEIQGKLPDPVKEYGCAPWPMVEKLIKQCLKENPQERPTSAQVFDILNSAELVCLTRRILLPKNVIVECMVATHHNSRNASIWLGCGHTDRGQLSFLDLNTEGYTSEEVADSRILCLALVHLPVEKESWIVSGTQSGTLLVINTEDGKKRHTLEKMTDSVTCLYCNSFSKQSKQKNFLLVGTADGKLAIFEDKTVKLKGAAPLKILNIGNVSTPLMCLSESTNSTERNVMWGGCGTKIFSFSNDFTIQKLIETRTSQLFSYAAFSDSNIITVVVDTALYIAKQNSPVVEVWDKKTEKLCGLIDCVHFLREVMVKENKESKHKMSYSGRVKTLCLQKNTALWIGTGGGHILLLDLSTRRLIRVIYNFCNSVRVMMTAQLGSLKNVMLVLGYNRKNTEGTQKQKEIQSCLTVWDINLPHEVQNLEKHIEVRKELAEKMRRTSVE

[1] = molecular target: T2, GST-tagged truncated LRRK2 containing residues 970 to 2527 (Homo sapiens, UniProt Q5S007); assay: In vitro LRRKtide peptide-substrate kinase assay, single dose testing (10 μM); format: biochemical; settings: for % LRRKtide phosphorylation relative to solvent: LRRKtide assay @ 10 μM inhibitor, GST-LRRK2 970-2527, 10 μM ATP, mean, N = 3, solvent control = 100%
T2 construct: GST-tagged truncated LRRK2 containing residues 970 to 2527 (Life Technologies); purchased Life Technologies
T2 sequence (Q5S007 970-2527): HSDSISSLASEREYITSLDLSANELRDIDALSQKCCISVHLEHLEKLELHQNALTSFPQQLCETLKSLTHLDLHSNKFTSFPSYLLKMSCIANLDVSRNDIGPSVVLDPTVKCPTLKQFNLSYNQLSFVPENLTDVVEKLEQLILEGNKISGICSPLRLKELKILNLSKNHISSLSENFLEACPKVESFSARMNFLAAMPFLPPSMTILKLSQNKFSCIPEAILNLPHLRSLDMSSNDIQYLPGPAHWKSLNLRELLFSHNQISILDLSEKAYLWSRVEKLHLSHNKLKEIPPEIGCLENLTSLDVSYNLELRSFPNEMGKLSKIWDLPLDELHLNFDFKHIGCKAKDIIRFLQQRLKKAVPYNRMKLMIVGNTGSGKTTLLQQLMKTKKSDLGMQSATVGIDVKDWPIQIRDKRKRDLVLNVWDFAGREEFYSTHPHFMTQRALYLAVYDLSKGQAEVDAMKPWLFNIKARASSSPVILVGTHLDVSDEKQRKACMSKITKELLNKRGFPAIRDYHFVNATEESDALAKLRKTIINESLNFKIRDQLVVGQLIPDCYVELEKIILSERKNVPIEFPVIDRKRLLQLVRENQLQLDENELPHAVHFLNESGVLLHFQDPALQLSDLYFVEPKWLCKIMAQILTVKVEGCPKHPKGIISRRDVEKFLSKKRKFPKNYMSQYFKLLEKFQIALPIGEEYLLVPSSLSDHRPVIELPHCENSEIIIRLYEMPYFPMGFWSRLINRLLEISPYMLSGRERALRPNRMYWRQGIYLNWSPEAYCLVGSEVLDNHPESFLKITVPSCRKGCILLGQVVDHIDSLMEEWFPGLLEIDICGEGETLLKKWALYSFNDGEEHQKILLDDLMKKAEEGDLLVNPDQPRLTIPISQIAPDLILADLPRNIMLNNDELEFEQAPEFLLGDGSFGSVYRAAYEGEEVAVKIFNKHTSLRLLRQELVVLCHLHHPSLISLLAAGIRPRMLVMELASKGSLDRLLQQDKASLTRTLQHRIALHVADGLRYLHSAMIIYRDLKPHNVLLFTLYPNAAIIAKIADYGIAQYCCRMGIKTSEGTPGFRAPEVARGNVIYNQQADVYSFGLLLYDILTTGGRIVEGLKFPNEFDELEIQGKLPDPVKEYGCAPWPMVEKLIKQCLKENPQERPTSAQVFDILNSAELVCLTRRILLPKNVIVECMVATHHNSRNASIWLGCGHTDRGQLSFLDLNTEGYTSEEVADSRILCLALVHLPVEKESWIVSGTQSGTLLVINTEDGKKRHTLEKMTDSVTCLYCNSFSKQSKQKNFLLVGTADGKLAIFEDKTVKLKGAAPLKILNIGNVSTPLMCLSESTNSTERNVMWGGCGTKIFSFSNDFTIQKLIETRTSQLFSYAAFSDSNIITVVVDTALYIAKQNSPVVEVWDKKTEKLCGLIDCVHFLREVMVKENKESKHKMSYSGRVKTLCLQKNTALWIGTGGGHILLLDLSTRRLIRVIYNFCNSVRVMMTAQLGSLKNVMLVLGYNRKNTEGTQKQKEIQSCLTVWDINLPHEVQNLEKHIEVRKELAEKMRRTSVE

O=C1NC(=O)c2c1c1c3ccccc3[nH]c1c1[nH]c3cc(Br)ccc3c21 [Cdk4 inhibitor]
Phosphorylation level relative to solvent (%) (cellular pS935 assay) (LRRK2 phospho-Ser935): 49.88% | % LRRKtide phosphorylation relative to solvent [1]: 6.82%

CC(C)c1nn(-c2c(Cl)cccc2Cl)c2nc(Cc3ccc(OCCO)cc3)[nH]c(=O)c12 [Cdk/Crk inhibitor]
Phosphorylation level relative to solvent (%) (cellular pS935 assay) (LRRK2 phospho-Ser935): 97.11% | % LRRKtide phosphorylation relative to solvent [1]: 54.91%

COc1ccc2c(c[n+](C)c3c4cc5c(cc4ccc23)OCO5)c1OC [Chelerythrine chloride]
Phosphorylation level relative to solvent (%) (cellular pS935 assay) (LRRK2 phospho-Ser935): 67.25% | % LRRKtide phosphorylation relative to solvent [1]: 77.91%

CC(=O)c1ccc(N2CCOCC2)cc1O [DNA-PK inhibitor III]
Phosphorylation level relative to solvent (%) (cellular pS935 assay) (LRRK2 phospho-Ser935): 71.78% | % LRRKtide phosphorylation relative to solvent [1]: 68.41%

O=c1cc(N2CCOCC2)oc2c1ccc1ccccc12 [DNA-PK inhibitor II]
Phosphorylation level relative to solvent (%) (cellular pS935 assay) (LRRK2 phospho-Ser935): 81.93% | % LRRKtide phosphorylation relative to solvent [1]: 86.06%

O=C(c1ccccc1)c1ccc(N2CCOCC2)cc1O [DNA-PK inhibitor V]
dephosphorylation of LRRK2 (Ser935) (LRRK2 phospho-Ser935; 5 μM, 2 h, SH-SY5Y): ~ 50% | Phosphorylation level relative to solvent (%) (cellular pS935 assay) (LRRK2 phospho-Ser935): 48.36% | % LRRKtide phosphorylation relative to solvent [1]: 89.01% | activity on LRRK2 kinase activity in vitro (in words) ([1]; no activity at 10 μM): inactive

O=c1c2ccccc2[nH]c(=S)n1CCN1CCC(=C(c2ccc(F)cc2)c2ccc(F)cc2)CC1 [Diacylglycerol kinase inhibitor II]
Phosphorylation level relative to solvent (%) (cellular pS935 assay) (LRRK2 phospho-Ser935): 84.54% | % LRRKtide phosphorylation relative to solvent [1]: 119.82%

O=C(Nc1cccc(Nc2cc(Nc3cccc(C(F)(F)F)c3)ncn2)c1)C1CC1 [EGFR inhibitor]
Phosphorylation level relative to solvent (%) (cellular pS935 assay) (LRRK2 phospho-Ser935): 57.76% | % LRRKtide phosphorylation relative to solvent [1]: 64.37%

CC#CC(=O)Nc1cc2c(Nc3ccc(F)c(Cl)c3)ncnc2cn1 [EGFR/ErbB-2/ErbB-4 inhibitor]
Phosphorylation level relative to solvent (%) (cellular pS935 assay) (LRRK2 phospho-Ser935): 69.18% | % LRRKtide phosphorylation relative to solvent [1]: 81.86%

Nc1[nH]nc2nnc(-c3c(-c4ccccc4)nn4ccccc34)cc12 [ERK inhibitor II, FR180204, FR180204]
Phosphorylation level relative to solvent (%) (cellular pS935 assay) (LRRK2 phospho-Ser935): 65.88% | % LRRKtide phosphorylation relative to solvent [1]: 14.06%

O=c1[nH][nH]c2nnc(-c3c(-c4ccccc4)nn4ccccc34)cc12 [ERK inhibitor II, negative control]
Phosphorylation level relative to solvent (%) (cellular pS935 assay) (LRRK2 phospho-Ser935): 77.12% | % LRRKtide phosphorylation relative to solvent [1]: 97.07%

N/C(=N\[N+](=O)[O-])N/N=C\c1ccc(-c2cccc([N+](=O)[O-])c2)o1 [ERK inhibitor III]
Phosphorylation level relative to solvent (%) (cellular pS935 assay) (LRRK2 phospho-Ser935): 90.93% | % LRRKtide phosphorylation relative to solvent [1]: 55.32%

O=C1c2ccccc2-[n+]2ccc3c([nH]c4ccccc43)c21 [Fascaplysin, synthetic, Fascaplysin]
Phosphorylation level relative to solvent (%) (cellular pS935 assay) (LRRK2 phospho-Ser935): 45.44% | % LRRKtide phosphorylation relative to solvent [1]: 17.51%

c1ccc(-c2cnc(Nc3ccc(OCCN4CCCC4)cc3)s2)cc1 [Flt-3 inhibitor III]
Phosphorylation level relative to solvent (%) (cellular pS935 assay) (LRRK2 phospho-Ser935): 54.21% | % LRRKtide phosphorylation relative to solvent [1]: 12.56%

O=C(c1cc2cc(O)ccc2[nH]1)c1cc2cc(O)ccc2[nH]1 [Flt-3 inhibitor II]
Phosphorylation level relative to solvent (%) (cellular pS935 assay) (LRRK2 phospho-Ser935): 53.00% | % LRRKtide phosphorylation relative to solvent [1]: 2.16%

COc1ccc(C(=O)Nc2sc3c(c2C(N)=O)CCCC3)cc1OC [Flt-3 inhibitor]
Phosphorylation level relative to solvent (%) (cellular pS935 assay) (LRRK2 phospho-Ser935): 63.54% | % LRRKtide phosphorylation relative to solvent [1]: 38.91%

Cc1cc(Nc2nc(-c3ccccc3)nc3ccccc23)n[nH]1 [GSK-3 inhibitor XIII]
Phosphorylation level relative to solvent (%) (cellular pS935 assay) (LRRK2 phospho-Ser935): 73.51% | % LRRKtide phosphorylation relative to solvent [1]: 3.34%

Ic1cccc(CSc2nnc(-c3ccncc3)o2)c1 [GSK-3b inhibitor II]
Phosphorylation level relative to solvent (%) (cellular pS935 assay) (LRRK2 phospho-Ser935): 84.51% | % LRRKtide phosphorylation relative to solvent [1]: 100.90%

Cn1sc(=O)n(Cc2ccccc2)c1=O [GSK-3b inhibitor I]
Phosphorylation level relative to solvent (%) (cellular pS935 assay) (LRRK2 phospho-Ser935): 95.90% | % LRRKtide phosphorylation relative to solvent [1]: 106.35%

COc1ccc(CNC(=O)Nc2ncc([N+](=O)[O-])s2)cc1 [GSK-3b inhibitor VIII]
Phosphorylation level relative to solvent (%) (cellular pS935 assay) (LRRK2 phospho-Ser935): 115.21% | % LRRKtide phosphorylation relative to solvent [1]: 128.15%

Nc1cccc(-c2cc3c(Oc4cccc(O)c4)ncnc3[nH]2)c1 [GSK-3b inhibitor XII, TWS119, TWS119]
Phosphorylation level relative to solvent (%) (cellular pS935 assay) (LRRK2 phospho-Ser935): 122.47% | % LRRKtide phosphorylation relative to solvent [1]: 13.54%

O=C1NC(=O)C(c2cn(CCCO)c3ncccc23)=C1c1cnccn1 [GSK-3b inhibitor XI]
Phosphorylation level relative to solvent (%) (cellular pS935 assay) (LRRK2 phospho-Ser935): 87.77% | % LRRKtide phosphorylation relative to solvent [1]: 32.34%

Cn1c2ccccc2c2c3c(c4c5ccccc5n(CCC#N)c4c21)CNC3=O [Gö 6976]
Phosphorylation level relative to solvent (%) (cellular pS935 assay) (LRRK2 phospho-Ser935): 56.41% | % LRRKtide phosphorylation relative to solvent [1]: 5.79%

COc1ccc2c(c1)c(C1=C(c3c[nH]c4ccccc34)C(=O)NC1=O)cn2CCCN(C)C [Gö 6983]
Phosphorylation level relative to solvent (%) (cellular pS935 assay) (LRRK2 phospho-Ser935): 70.11% | % LRRKtide phosphorylation relative to solvent [1]: 3.04%

Cl.Cl.O=S(=O)(NCCNC/C=C/c1ccc(Br)cc1)c1cccc2cnccc12 [H-89, Dihydrochloride]
Phosphorylation level relative to solvent (%) (cellular pS935 assay) (LRRK2 phospho-Ser935): 155.11% | % LRRKtide phosphorylation relative to solvent [1]: 45.29%

O=S(=O)(c1cccc2cnccc12)N1CCCNCC1 [HA 1077, Dihydrochloride Fasudil, Fasudil]
Phosphorylation level relative to solvent (%) (cellular pS935 assay) (LRRK2 phospho-Ser935): 89.37% | % LRRKtide phosphorylation relative to solvent [1]: 79.40%

CO[C@H]1[C@@H](OC)C[C@H](C)[C@@H](OC)C2=CC(=O)C=C(NC(=O)/C(C)=C/C=C\[C@H](OC)[C@@H](OC(N)=O)/C(C)=C/[C@@H]1C)C2=O [Herbimycin A, Streptomyces sp., Herbimycin A]
Phosphorylation level relative to solvent (%) (cellular pS935 assay) (LRRK2 phospho-Ser935): 92.79% | % LRRKtide phosphorylation relative to solvent [1]: 103.97%

COc1ccc(Cl)cc1NC(=O)Nc1cc(C)nc2ccccc12 [IGF-1R inhibitor II]
Phosphorylation level relative to solvent (%) (cellular pS935 assay) (LRRK2 phospho-Ser935): 80.40% | % LRRKtide phosphorylation relative to solvent [1]: 93.23%

NC(=O)Nc1sc(-c2ccc(F)cc2)cc1C(N)=O [IKK-2 inhibitor IV]
Phosphorylation level relative to solvent (%) (cellular pS935 assay) (LRRK2 phospho-Ser935): 108.38% | % LRRKtide phosphorylation relative to solvent [1]: 5.13%

O=C(Nc1nc2ccccc2n1CCN1CCOCC1)c1cccc([N+](=O)[O-])c1 [IRAK-1/4 inhibitor]
Phosphorylation level relative to solvent (%) (cellular pS935 assay) (LRRK2 phospho-Ser935): 71.83% | % LRRKtide phosphorylation relative to solvent [1]: 55.78%

O=C1NC(=O)c2c1c1c3ccccc3[nH]c1n1cncc21 [Isogranulatimide]
Phosphorylation level relative to solvent (%) (cellular pS935 assay) (LRRK2 phospho-Ser935): 77.38% | % LRRKtide phosphorylation relative to solvent [1]: 4.64%

CC(C)N(CCC(=O)c1ccc2ccccc2c1)Cc1ccccc1 [JAK3 inhibitor IV]
Phosphorylation level relative to solvent (%) (cellular pS935 assay) (LRRK2 phospho-Ser935): 63.71% | % LRRKtide phosphorylation relative to solvent [1]: 90.96%

CC(C)(C)c1nc2c3cc[nH]c(=O)c3c3cc(F)ccc3c2[nH]1 [JAK inhibitor I]
Phosphorylation level relative to solvent (%) (cellular pS935 assay) (LRRK2 phospho-Ser935): 47.17% | % LRRKtide phosphorylation relative to solvent [1]: 3.20%

O=C1c2ccccc2-c2n[nH]c3cccc1c23 [JNK inhibitor II]
Phosphorylation level relative to solvent (%) (cellular pS935 assay) (LRRK2 phospho-Ser935): 81.52% | % LRRKtide phosphorylation relative to solvent [1]: 2.32%

N#Cc1c(NC(=O)c2cccc3ccccc23)sc2c1CCCC2 [JNK inhibitor IX]
Phosphorylation level relative to solvent (%) (cellular pS935 assay) (LRRK2 phospho-Ser935): 42.05% | % LRRKtide phosphorylation relative to solvent [1]: 61.45%

CCOc1nc(NC(=O)Cc2cc(OC)ccc2OC)cc(N)c1C#N [JNK inhibitor VIII]
Phosphorylation level relative to solvent (%) (cellular pS935 assay) (LRRK2 phospho-Ser935): 93.08% | % LRRKtide phosphorylation relative to solvent [1]: 105.45%

N#CC(c1ccnc(NCCc2cccnc2)n1)c1nc2ccccc2s1 (stereo not drawn) [JNK inhibitor V]
Phosphorylation level relative to solvent (%) (cellular pS935 assay) (LRRK2 phospho-Ser935): 71.85% | % LRRKtide phosphorylation relative to solvent [1]: 37.61%

Cn1nc2c3c(cccc31)C(=O)c1ccccc1-2 [JNK inhibitor, negative control]
Phosphorylation level relative to solvent (%) (cellular pS935 assay) (LRRK2 phospho-Ser935): 107.46% | % LRRKtide phosphorylation relative to solvent [1]: 17.88%

COC(=O)[C@@]1(O)C[C@H]2O[C@]1(C)n1c3ccccc3c3c4c(c5c6ccccc6n2c5c31)C(=O)NC4 [K-252a, Nocardiopsis sp., K-252a]
Phosphorylation level relative to solvent (%) (cellular pS935 assay) (LRRK2 phospho-Ser935): 72.18% | % LRRKtide phosphorylation relative to solvent [1]: 1.13%

CN([C@@H](Cc1ccc(OS(=O)(=O)c2cccc3cnccc23)cc1)C(=O)N1CCN(c2ccccc2)CC1)S(=O)(=O)c1cccc2cnccc12 [KN-62]
Phosphorylation level relative to solvent (%) (cellular pS935 assay) (LRRK2 phospho-Ser935): 84.73% | % LRRKtide phosphorylation relative to solvent [1]: 17.20%

COc1ccc(S(=O)(=O)N(CCO)c2ccccc2CN(C)C/C=C/c2ccc(Cl)cc2)cc1 [KN-93]
Phosphorylation level relative to solvent (%) (cellular pS935 assay) (LRRK2 phospho-Ser935): 102.70% | % LRRKtide phosphorylation relative to solvent [1]: 120.59%
